Values quoted from earlier work in patent publication US6790445B1, “Preservatives for vaccines” (Merck & Co., Inc., priority 1997, dated 2004).

Tests used:
[1] = in vivo
mice = conditions: intraperitoneally
population = conditions: in vivo
[2] = at 4° C.

Which results are given for `OCCOc1ccccc1` [2-Phenoxyethanol, 2-phenoxyethanol]?
acute oral LD50 (rats): 1.26 to 2.33 mL/kg; acute dermal LD50 (rabbits): 2.0 mL/kg

Which probable lethal dose [1] does the source give for `OCc1ccccc1` [Benzyl Alcohol, benzyl alcohol] here?
The probable lethal dose was 0.5 to 5.0 g/kg.

With `COC(=O)c1ccc(O)cc1` [Methyl Paraben, methyl paraben] as the compound, how does the LD50 (mice) read?
The LD50 was 1 g/kg.

Which “allergic reaction, share of the population” value (population) does the source give for `C[CH2][Hg][S]c1ccccc1C(=O)[O-].[Na+]` [Thimerosal] here?
The value was “about sixteen”.

Which pKa [2] does the source give for `N[C@@H](Cc1c[nH]cn1)C(=O)O` [histidine, L-histidine] here?
Its pKa is 7.
